Source: patent US20230365546A1, “5-SUBSTITUTED INDOLE 3-AMIDE DERIVATIVES, PREPARATION METHOD AND USE THEREOF” (ORIGIANT PHARMACEUTICAL CO., LTD, priority 2020, published 2023)

What was measured:
Assay in all cases: Kinase Profiler 10 μM panel
[1] = molecular target: TYK2(h) (Homo sapiens (Human), UniProt P29597)
Procedure: (§1) In vitro kinase assays were conducted using Kinase Profiler services provided by Eurofins. The experimental method was as follows: the small molecule compound to be tested (0.001-10 μM), the protein kinase to be tested were incubated with a buffer containing substrate, 10 mM magnesium acetate, and [γ-^33P-ATP], the reaction was started by adding Mg\TPmix, after incubation for a period of time at room temperature, a 3% phosphate solution was added to the buffer to stop the reaction. Subsequently, 10 μL of the reaction mixture was quantitatively pipetted onto P30 filter paper, which was washed three times with 75 mM phosphate solution and then once with methanol. The P30 filter paper was air-dried and scintillation fluid was added for scintillation counting.

[2] = molecular target: EphA5(h) (Homo sapiens (Human), UniProt P54756)
Procedure: as §1

[3] = molecular target: CDKL3(h) (Homo sapiens (Human), UniProt Q8IVW4)
Procedure: as §1

[4] = molecular target: Fes(h) (Homo sapiens (Human), UniProt P07332)
Procedure: as §1

[5] = molecular target: PKCζ(h) (Homo sapiens (Human), UniProt Q05513)
Procedure: as §1

[6] = molecular target: MST2(h) (Homo sapiens (Human), UniProt Q13188)
Procedure: as §1

[7] = molecular target: STK32B(h) (Homo sapiens (Human), UniProt Q9NY57)
Procedure: as §1

[8] = molecular target: ACK1(h) (Homo sapiens (Human), UniProt Q07912)
Procedure: as §1

[9] = molecular target: VRK2(h) (Homo sapiens (Human), UniProt Q86Y07)
Procedure: as §1

[10] = molecular target: MEK1(h) (Homo sapiens (Human), UniProt Q02750)
Procedure: as §1

[11] = molecular target: SRPK1(h) (Homo sapiens (Human), UniProt Q96SB4)
Procedure: as §1

[12] = molecular target: A-Raf(h) (Homo sapiens (Human), UniProt P10398)
Procedure: as §1

[13] = molecular target: PRK1(h) (Homo sapiens (Human), UniProt Q16512)
Procedure: as §1

[14] = molecular target: CaMKIIδ(h) (Homo sapiens (Human), UniProt Q13557)
Procedure: as §1

[15] = molecular target: Met(Y1248D)(h) (Homo sapiens (Human), UniProt P08581, Y1230D)
Procedure: as §1

[16] = molecular target: WNK4(h) (Homo sapiens (Human), UniProt Q96J92)
Procedure: as §1

[17] = molecular target: MLK3(h) (Homo sapiens (Human), UniProt Q16584)
Procedure: The experimental method was as follows: the small molecule compound to be tested (0.001-10 μM), the protein kinase to be tested were incubated with a buffer containing substrate, 10 mM magnesium acetate, and [γ-^33P-ATP], the reaction was started by adding Mg\TPmix, after incubation for a period of time at room temperature, a 3% phosphate solution was added to the buffer to stop the reaction. Subsequently, 10 μL of the reaction mixture was quantitatively pipetted onto P30 filter paper, which was washed three times with 75 mM phosphate solution and then once with methanol. The P30 filter paper was air-dried and scintillation fluid was added for scintillation counting.

[18] = molecular target: WNK2(h) (Homo sapiens (Human), UniProt Q9Y3S1)
Procedure: as §1

[19] = molecular target: Mnk2(h) (Homo sapiens (Human), UniProt Q9HBH9)
Procedure: as §1

[20] = molecular target: PKA(h) (Homo sapiens (Human), UniProt P17612)
Procedure: as §1

[21] = molecular target: PhKγ1(h) (Homo sapiens (Human), UniProt Q16816)
Procedure: as §1

[22] = molecular target: CaMKI(h) (Homo sapiens (Human), UniProt Q14012)
Procedure: as §1

[23] = molecular target: Abl(Y253F)(h) (Homo sapiens (Human), UniProt P00519, Y253F)
Procedure: as §1

[24] = molecular target: SAPK4(h) (Homo sapiens (Human), UniProt O15264)
Procedure: as §1

[25] = molecular target: WNK1(h) (Homo sapiens (Human), UniProt Q9H4A3)
Procedure: as §1

[26] = molecular target: PI3 Kinase (p110a/p65a)(h) (Homo sapiens (Human), UniProt P42336)
Procedure: as §1

[27] = molecular target: Blk(m) (Mus musculus (Mouse), UniProt P16277)
Procedure: as §1

[28] = molecular target: MST4(h) (Homo sapiens (Human), UniProt Q9P289)
[29] = molecular target: Wee1B(h) (Homo sapiens (Human), UniProt P0C1S8)
Procedure: as §1

[30] = molecular target: DYRK2(h) (Homo sapiens (Human), UniProt Q92630)
Procedure: as §1

[31] = molecular target: SRMS(h) (Homo sapiens (Human), UniProt Q9H3Y6)
Procedure: as §1

[32] = molecular target: PDHK2(h) (Homo sapiens (Human), UniProt Q15119)
Procedure: as §1

[33] = molecular target: EphA3(h) (Homo sapiens (Human), UniProt P29320)
Procedure: as §1

[34] = molecular target: CDK5/p25(h) (Homo sapiens (Human), UniProt Q00535)
Procedure: as §1

Sequence of EphA3(h) (P29320 21-983): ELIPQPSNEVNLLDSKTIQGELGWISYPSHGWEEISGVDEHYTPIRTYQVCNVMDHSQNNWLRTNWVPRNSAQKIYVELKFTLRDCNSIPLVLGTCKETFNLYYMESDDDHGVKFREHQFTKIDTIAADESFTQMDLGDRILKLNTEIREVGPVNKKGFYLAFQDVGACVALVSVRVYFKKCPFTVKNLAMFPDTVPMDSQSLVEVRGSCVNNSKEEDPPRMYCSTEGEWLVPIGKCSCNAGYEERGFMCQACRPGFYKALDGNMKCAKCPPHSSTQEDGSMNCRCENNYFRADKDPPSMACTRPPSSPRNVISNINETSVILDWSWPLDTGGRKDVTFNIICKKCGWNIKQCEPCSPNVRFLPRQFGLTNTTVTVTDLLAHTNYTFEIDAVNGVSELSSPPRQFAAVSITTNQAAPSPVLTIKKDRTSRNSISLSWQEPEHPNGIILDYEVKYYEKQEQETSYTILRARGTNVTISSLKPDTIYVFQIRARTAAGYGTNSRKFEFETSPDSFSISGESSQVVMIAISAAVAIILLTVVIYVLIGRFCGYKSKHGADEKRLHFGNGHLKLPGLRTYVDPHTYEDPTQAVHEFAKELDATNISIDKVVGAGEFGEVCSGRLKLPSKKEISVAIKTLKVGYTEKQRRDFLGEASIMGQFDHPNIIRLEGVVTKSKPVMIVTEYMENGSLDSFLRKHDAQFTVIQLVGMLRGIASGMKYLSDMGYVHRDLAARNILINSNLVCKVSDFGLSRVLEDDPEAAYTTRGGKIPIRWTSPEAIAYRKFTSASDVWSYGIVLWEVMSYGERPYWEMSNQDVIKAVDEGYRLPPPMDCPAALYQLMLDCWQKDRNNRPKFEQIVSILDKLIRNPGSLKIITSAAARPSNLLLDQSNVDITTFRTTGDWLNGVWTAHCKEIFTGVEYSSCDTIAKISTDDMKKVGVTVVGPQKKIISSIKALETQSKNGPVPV
Sequence of MLK3(h) (Q16584 whole entry): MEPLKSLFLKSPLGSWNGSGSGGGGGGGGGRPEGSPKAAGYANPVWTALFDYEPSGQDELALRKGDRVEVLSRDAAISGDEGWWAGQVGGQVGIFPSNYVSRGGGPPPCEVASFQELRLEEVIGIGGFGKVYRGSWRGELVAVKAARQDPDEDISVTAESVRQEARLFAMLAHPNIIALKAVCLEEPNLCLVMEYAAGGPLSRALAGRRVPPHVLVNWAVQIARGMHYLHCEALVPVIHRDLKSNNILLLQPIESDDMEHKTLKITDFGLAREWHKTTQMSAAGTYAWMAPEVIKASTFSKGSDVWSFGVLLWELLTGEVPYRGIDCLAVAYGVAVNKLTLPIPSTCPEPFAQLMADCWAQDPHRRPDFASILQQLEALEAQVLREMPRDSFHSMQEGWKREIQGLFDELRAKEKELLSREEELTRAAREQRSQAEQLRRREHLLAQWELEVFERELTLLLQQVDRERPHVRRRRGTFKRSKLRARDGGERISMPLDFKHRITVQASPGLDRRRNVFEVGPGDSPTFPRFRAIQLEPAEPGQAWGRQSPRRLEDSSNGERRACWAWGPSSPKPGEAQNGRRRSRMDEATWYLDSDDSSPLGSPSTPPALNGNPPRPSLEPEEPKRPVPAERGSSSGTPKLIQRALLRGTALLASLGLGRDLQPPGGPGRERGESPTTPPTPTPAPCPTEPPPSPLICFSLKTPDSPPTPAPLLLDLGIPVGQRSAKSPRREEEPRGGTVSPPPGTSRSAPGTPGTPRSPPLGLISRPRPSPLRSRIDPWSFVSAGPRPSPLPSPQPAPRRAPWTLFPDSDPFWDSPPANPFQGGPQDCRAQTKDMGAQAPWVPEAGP
Sequence of WNK1(h) (Q9H4A3 whole entry): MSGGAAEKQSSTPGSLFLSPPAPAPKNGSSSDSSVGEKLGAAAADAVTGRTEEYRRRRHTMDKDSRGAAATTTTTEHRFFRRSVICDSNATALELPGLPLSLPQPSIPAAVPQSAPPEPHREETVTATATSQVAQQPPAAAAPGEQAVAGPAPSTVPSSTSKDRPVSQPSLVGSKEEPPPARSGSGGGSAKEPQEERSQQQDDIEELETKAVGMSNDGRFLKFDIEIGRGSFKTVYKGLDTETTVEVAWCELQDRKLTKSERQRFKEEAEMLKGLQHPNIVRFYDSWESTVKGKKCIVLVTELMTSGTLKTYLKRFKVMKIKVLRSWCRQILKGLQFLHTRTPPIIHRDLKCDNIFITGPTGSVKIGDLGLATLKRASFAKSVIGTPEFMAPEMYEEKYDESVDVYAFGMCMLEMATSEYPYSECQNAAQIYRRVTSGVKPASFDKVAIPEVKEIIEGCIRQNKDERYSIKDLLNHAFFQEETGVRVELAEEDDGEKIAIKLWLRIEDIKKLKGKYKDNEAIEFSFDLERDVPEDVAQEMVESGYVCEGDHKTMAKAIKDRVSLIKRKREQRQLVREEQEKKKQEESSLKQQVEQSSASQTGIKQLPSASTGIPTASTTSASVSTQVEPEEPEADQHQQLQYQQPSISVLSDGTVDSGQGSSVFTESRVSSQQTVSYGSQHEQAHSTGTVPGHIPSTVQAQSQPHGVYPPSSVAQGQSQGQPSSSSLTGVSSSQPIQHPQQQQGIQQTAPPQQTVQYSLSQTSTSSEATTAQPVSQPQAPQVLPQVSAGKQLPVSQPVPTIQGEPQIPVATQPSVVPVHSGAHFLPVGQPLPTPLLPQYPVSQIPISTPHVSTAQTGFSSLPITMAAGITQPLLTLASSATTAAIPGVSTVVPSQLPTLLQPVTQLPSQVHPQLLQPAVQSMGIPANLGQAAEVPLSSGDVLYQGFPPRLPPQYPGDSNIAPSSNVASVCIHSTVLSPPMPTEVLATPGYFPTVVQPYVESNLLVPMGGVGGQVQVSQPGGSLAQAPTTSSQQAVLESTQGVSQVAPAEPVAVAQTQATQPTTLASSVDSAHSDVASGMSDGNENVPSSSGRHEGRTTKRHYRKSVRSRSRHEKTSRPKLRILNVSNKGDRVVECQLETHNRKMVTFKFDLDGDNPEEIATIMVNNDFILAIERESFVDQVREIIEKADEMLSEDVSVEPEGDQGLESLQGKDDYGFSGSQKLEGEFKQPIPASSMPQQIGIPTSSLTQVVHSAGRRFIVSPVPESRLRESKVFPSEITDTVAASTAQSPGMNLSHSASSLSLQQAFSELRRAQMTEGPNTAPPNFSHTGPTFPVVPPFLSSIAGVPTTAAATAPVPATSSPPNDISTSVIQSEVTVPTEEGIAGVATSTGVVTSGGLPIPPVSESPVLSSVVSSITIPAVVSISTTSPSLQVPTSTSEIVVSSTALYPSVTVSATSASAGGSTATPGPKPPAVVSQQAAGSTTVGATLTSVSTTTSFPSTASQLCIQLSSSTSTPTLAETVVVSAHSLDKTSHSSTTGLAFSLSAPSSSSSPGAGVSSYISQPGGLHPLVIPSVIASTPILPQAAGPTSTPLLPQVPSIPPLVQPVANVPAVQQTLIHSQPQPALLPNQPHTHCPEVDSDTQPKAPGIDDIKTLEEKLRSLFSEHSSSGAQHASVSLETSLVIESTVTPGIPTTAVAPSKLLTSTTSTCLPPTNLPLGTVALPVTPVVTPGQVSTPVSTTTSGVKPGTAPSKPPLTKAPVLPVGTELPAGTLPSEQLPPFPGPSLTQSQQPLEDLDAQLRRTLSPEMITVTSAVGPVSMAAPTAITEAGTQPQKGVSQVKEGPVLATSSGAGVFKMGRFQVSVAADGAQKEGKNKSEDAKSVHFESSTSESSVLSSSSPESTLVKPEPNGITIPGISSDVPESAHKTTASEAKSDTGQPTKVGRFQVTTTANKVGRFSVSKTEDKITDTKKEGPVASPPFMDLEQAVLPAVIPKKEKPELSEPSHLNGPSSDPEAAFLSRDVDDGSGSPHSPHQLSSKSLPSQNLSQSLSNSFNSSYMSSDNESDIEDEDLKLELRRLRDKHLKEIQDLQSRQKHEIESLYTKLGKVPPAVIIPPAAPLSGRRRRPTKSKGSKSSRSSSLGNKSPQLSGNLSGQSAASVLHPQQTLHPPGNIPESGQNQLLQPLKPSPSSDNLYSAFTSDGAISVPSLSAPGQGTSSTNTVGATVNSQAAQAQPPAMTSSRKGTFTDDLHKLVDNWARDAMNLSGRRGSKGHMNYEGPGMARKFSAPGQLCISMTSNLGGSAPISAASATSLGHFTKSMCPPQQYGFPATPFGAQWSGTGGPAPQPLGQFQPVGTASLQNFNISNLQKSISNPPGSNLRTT
Sequence of MST4(h) (Q9P289 whole entry): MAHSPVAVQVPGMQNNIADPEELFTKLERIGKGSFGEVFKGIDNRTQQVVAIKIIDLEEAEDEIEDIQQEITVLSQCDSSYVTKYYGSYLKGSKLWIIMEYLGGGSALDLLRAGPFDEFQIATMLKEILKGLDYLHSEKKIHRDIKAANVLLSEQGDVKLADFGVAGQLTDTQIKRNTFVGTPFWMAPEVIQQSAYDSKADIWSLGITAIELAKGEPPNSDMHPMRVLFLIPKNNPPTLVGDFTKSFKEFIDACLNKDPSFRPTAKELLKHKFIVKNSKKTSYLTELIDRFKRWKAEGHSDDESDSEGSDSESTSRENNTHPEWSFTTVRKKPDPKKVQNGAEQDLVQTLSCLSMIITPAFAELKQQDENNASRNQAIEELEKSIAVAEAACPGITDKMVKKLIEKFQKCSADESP
Sequence of CaMKIIδ(h) (Q13557 whole entry): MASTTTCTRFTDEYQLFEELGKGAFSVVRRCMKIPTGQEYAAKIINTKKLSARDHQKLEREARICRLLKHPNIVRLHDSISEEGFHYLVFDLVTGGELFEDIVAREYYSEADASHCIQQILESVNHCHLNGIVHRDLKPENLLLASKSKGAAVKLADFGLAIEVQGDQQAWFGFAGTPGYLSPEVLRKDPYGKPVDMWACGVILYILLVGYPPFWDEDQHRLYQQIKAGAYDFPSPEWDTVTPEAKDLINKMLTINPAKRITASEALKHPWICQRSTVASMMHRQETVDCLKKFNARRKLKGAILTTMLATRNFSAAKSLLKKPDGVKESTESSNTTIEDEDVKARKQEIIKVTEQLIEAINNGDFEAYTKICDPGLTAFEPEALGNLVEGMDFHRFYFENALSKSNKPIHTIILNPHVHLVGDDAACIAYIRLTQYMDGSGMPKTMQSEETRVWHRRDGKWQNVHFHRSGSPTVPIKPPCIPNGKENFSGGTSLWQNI

C[C@H](NC(=O)c1cn(C)c2ccc(-c3ccn4nc(NC(=O)C5CC5)nc4c3)cc12)c1cccc(F)c1 [Compound 94, (S)-5-(2-(cyclopropanecarboxamido)-[1,2,4]triazolo[1,5-a]pyridin-7-yl)-N-(1-(3-fluorophenyl)ethyl)-1-methyl-1H-indole-3-carboxamide]
Inhibition ratio/% [1]: 50%
Inhibition ratio/% [2]: 4%
Inhibition ratio/% [3]: −5%
Inhibition ratio/% [4]: 54%
Inhibition ratio/% [5]: −2%
Inhibition ratio/% [6]: −14%
Inhibition ratio/% [7]: 27%
Inhibition ratio/% [8]: 33%
Inhibition ratio/% [9]: −18%
Inhibition ratio/% [10]: 43%
Inhibition ratio/% [11]: 50%
Inhibition ratio/% [12]: 10%
Inhibition ratio/% [13]: −12%
Inhibition ratio/% [14]: −11%
Inhibition ratio/% [15]: 13%
Inhibition ratio/% [16]: 48%
Inhibition ratio/% [17]: 102%
Inhibition ratio/% [18]: 6%
Inhibition ratio/% [19]: 51%
Inhibition ratio/% [20]: 55%
Inhibition ratio/% [21]: −12%
Inhibition ratio/% [22]: 49%
Inhibition ratio/% [23]: 23%
Inhibition ratio/% [24]: 12%
Inhibition ratio/% [25]: 45%
Inhibition ratio/% [26]: 4%
Inhibition ratio/% [27]: 77%
Inhibition ratio/% [28]: 12%
Inhibition ratio/% [29]: −2%
Inhibition ratio/% [30]: 2%
Inhibition ratio/% [31]: 43%
Inhibition ratio/% [32]: 32%
Inhibition ratio/% [33]: 6%
Inhibition ratio/% [34]: 46%

C[C@H](NC(=O)c1c[nH]c2ccc(-c3ccc4nc(NC(=O)C5CC5)sc4c3)cc12)c1cccc(F)c1 [Compound 34, (S)-5-(2-(cyclopropanecarboxamido)benzo[d]thiazol-6-yl)-N-(1-(3-fluorophenyl)ethyl)-1H-indole-3-carboxamide]
Inhibition ratio [1]: 12%
Inhibition ratio [2]: 40%
Inhibition ratio [3]: 51%
Inhibition ratio [4]: 26%
Inhibition ratio [5]: 10%
Inhibition ratio [6]: −9%
Inhibition ratio [7]: −2%
Inhibition ratio [8]: 35%
Inhibition ratio [9]: 21%
Inhibition ratio [10]: 12%
Inhibition ratio [11]: 29%
Inhibition ratio [12]: −1%
Inhibition ratio [13]: 26%
Inhibition ratio [14]: 22%
Inhibition ratio [15]: 99%
Inhibition ratio [16]: 17%
Inhibition ratio [17]: 101%
Inhibition ratio [18]: 38%
Inhibition ratio [19]: 38%
Inhibition ratio [20]: −12%
Inhibition ratio [21]: 16%
Inhibition ratio [22]: 5%
Inhibition ratio [23]: 95%
Inhibition ratio [24]: 94%
Inhibition ratio [25]: 10%
Inhibition ratio [26]: 55%
Inhibition ratio [27]: 65%
Inhibition ratio [28]: 11%
Inhibition ratio [29]: −2%
Inhibition ratio [30]: 5%
Inhibition ratio [31]: 12%
Inhibition ratio [32]: 3%
Inhibition ratio [33]: −8%
Inhibition ratio [34]: 16%
